Assay results reported in patent US12391685B2, “Inhibitors of RNA-guided nuclease target binding and uses thereof” (THE BROAD INSTITUTE, INC., priority 2018, dated 2025).

Experiments:
SpCas9 [1] = biological target: T1, SpCas9 (Streptococcus pyogenes serotype M1, UniProt Q99ZW2); assay: mKate2-disruption assay in HEK293T cells; type: cell-based, S. pyogenes; settings: 1.5-5 μM, 24 h
Procedure: mKate2-disruption assay. Approximately 8,000 cells/well were seeded in a 96-well plate 24 h before transient transfection with 100 ng of either CgRNA (Addgene Plasmid #64955) or T1gRNA (Addgene Plasmid #62717) plasmids using Lipofectamine 2000 (Life Technologies). Transfected cells were allowed to grow in the indicated amount of small molecule or DMSO for 24 h. Cells were then fixed using 4% paraformaldehyde and imaged with the HCS NuclearMask™ Blue Stain (Life Technologies) as the nuclear counter-staining agent. Imaging was performed with an ImageXpress Micro automated microscope (Molecular Devices) at 20× magnification under two excitation channels (blue and red) with 9 acquisition sites per well. Images were analyzed using the MetaXpress software to determine the % mKate2 positive cells and data was plotted using GraphPad Prism 6. The Z′-value was calculated following the formula: Z′=1−(3(σ1+σ2))/(|μ1−μ2|) where σ1 and σ2 are the standard deviations of CgRNA transfected wells and T1gRNA transfected wells respectively. μ1 and μ2 are the mean % RFP^+ cell population for CgRNA transfected wells and T1gRNA transfected wells, respectively.

FnCpf1 = FnCpf1 (Francisella tularensis subsp. novicida, UniProt A0Q7Q2); type: cell-based; settings: 6-20 μM, 30 h
SpCas9 [2] = biological target: T1, SpCas9; type: cell-based, S. pyogenes; design: made in house; host or cells: E. coli Rosetta (DE3); settings: not told
From the text: FIGS. 8A-8H—Structure-activity analysis and inhibition of dCas9-based transcriptional upregulation. (FIG. 8A) Structure-activity relationship studies of BRD3433 in the eGFP-disruption assay in U2OS.eGFP.PEST cells. The set of functional groups on top represents variation at the 1-N-cap position (R^1) whereas those at the bottom represents the functional group variation at the 8-position (R^2). Bar plot depicts the reduction in the activity of different structural analogs with respect to that of BRD3433. Asterisk-labeled compounds contain a methyl group at the 4-N position, while others have a proton. The data are an average of two biological replicates. (FIG. 8B) Inhibition of dSpCas9-based transcriptional upregulation of HBG1 gene in HEK293FT cells by BRD7087. Cells were transfected with dSpCas9, MS2.p65.HSF1.GFP plasmids along with either RFP or HBG1 gRNA plasmid and incubated in the presence of the small molecules at the indicated concentration for 48 h before RT-qPCR analysis. Data represents average of 6 technical replicates. Y-axis represents % fold change in the compound activity with respect to BRD7087. […] (FIG. 8D) Cellular impermeability of the anti-CRISPR protein AcrllA4 assessed by lack of SpCas9 inhibition in the eGFP-disruptoin assay when AcrLLA4 is incubated in the media. […] (FIG. 8F) Human plasma stability of compound as determined by UPLC/MS in MRM method. […]

T1 sequence (Q99ZW2 whole entry): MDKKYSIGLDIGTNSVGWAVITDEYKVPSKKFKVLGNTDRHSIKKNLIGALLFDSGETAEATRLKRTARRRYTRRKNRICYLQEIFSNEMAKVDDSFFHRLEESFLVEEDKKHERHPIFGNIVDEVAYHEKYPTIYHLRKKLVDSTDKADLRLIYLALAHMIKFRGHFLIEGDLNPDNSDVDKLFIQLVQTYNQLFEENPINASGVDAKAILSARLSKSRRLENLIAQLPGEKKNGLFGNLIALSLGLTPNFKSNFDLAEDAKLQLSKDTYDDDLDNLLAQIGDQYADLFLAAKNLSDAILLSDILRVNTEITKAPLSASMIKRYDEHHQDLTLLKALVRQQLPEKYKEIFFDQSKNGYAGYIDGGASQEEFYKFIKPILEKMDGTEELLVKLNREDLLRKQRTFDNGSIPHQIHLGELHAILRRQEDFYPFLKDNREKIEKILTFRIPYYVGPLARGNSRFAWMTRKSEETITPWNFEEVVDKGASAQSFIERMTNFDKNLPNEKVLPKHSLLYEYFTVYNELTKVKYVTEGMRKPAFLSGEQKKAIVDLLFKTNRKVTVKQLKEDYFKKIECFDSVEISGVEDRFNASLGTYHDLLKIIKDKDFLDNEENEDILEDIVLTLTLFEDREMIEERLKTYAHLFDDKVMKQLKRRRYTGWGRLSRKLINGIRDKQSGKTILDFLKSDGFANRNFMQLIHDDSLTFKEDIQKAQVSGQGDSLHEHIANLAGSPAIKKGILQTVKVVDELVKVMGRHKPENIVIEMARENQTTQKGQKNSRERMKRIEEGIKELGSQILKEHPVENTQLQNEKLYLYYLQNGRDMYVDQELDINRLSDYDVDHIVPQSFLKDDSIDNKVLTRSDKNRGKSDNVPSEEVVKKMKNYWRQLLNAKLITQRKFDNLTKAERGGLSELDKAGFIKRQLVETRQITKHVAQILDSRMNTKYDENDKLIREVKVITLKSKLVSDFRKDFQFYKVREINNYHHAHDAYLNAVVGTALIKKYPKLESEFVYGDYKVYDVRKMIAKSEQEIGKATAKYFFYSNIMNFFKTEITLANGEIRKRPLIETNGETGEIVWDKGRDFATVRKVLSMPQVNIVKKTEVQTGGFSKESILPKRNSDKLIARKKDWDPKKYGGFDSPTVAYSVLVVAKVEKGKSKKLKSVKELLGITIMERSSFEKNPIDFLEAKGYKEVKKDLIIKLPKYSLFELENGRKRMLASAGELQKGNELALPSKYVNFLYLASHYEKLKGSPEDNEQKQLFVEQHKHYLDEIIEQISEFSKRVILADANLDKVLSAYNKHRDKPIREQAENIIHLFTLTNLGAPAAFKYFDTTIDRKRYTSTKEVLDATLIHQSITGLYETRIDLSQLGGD
FnCpf1, sequence (A0Q7Q2 whole entry, looked up): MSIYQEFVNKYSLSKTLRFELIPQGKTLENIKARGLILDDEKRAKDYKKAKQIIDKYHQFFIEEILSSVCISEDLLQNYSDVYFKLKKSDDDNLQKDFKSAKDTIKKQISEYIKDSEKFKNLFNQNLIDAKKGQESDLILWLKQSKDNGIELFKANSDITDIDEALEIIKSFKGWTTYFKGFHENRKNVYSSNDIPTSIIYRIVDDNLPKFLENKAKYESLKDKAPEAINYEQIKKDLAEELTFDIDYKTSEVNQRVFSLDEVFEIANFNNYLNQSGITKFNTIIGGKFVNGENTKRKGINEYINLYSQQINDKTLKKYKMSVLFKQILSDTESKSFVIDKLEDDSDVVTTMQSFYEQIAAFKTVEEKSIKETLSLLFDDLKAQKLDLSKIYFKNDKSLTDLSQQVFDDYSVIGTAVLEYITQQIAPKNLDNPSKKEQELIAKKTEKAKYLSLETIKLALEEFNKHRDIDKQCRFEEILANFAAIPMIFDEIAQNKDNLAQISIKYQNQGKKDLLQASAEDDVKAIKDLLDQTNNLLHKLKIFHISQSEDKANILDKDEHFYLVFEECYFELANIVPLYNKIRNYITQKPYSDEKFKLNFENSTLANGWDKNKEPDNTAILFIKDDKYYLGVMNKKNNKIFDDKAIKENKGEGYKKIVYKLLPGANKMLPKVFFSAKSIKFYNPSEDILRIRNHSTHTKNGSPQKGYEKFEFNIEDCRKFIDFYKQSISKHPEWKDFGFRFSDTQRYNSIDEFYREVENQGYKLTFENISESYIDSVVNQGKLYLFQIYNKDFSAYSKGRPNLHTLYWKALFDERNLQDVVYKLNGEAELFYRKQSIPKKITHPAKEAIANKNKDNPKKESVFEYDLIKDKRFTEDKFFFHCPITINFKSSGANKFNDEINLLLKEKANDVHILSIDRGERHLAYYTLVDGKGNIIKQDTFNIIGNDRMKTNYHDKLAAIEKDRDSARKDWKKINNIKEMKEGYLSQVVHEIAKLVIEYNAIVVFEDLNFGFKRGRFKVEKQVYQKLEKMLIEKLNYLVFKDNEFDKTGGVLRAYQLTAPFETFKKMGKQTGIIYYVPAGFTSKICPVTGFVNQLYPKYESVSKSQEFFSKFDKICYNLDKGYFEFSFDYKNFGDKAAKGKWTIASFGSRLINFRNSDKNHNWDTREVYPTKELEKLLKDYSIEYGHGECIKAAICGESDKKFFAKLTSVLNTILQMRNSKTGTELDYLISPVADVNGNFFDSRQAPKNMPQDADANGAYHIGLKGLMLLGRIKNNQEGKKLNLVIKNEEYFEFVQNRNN

| Structure (SMILES) | inhibition of SpCas9 in the mKate2 disruption assay (in words) (SpCas9 [1]) | inhibition of FnCpf1 (in words) (FnCpf1) | cell permeability (in words) (SpCas9 [2]) |
| --- | --- | --- | --- |
| OC[C@H]1Nc2ccc(-c3cccc(F)c3)cc2[C@H]2[C@@H]1CCN2Cc1ccncc1 [BRD7087, ((3aR,4S,9bR)-8-(3-Fluorophenyl)-1-(pyridin-4-ylmethyl)-2,3,3a,4,5,9b-hexahydro-1H-pyrrolo[3,2-c]quinolin-4-yl) methanol] | dose-dependent inhibition |  |  |
| Cc1ccc(S(=O)(=O)N2CC[C@@H]3[C@H](CO)Nc4ccc(-c5ccccc5F)cc4[C@@H]32)cc1 [BRD0539, ((3aR,4R,9bR)-8-(2-fluorophenyl)-1-tosyl-2,3,3a,4,5,9b-hexahydro-1H-pyrrolo[3,2-c]quinolin-4-yl) methanol] |  | unable to inhibit | cell permeable |
